Experimental data as given in patent US20240165087A1, “APPLICATION OF RILUZOLE- AND BORNEOL-CONTAINING COMPOSITION IN PREPARATION OF MEDICATION FOR TREATING CEREBROVASCULAR DISEASES” (NEURODAWN PHARMACEUTICAL CO., LTD., priority 2021, published 2024).

What was measured:
[1] = molecular target: T1, recombinant human GABAAR (α1β2γ2L) (Homo sapiens, UniProt P14867+P18507+P47870); conditions: Xenopus laevis oocytes, cited from earlier work
T1 construct: host or cells: Xenopus laevis oocytes

MCAO rats = assay: Rat focal cerebral ischemia-reperfusion model (MCAO), neurological deficit score and cerebral infarction area; assay type: in vivo; conditions: Example 6
Excerpt: The rat focal cerebral ischemia-reperfusion model was established by internal carotid artery suture method. The limbs (hind limbs above the knee joint and forelimbs above the wrist joint) and head of an anesthetized rat were tightened with rubber bands. The animal was fixed on an operating table in supine position, and was shaved with an animal shaver from the head to the chest, and the skin was disinfected with alcohol. The neck of the rat was cut at the midline, and the subcutaneous tissue was bluntly separated. The thin layer of fascia on the surface of the anterior triangle of the neck was separated, the lower side-lower edge of the clavicular hyoid muscle was pulled up, and the longitudinally pulsating artery parallel to this muscle can be seen. The arterial shell was opened, and the bifurcation of the right carotid artery was exposed. The right common carotid artery, external carotid artery and internal carotid artery were separated. The vagus nerve was gently stripped, and the external carotid artery was ligated and cut. The proximal end of the common carotid artery was clamped. An incision was made at the distal end from the ligature of the external carotid artery, and was inserted with a suture line, which was passed through the bifurcation of the common carotid artery into the internal carotid artery, and then was inserted slowly until reaching slight resistance (approximately 20 mm from the bifurcation), so as to block all blood supply to the middle cerebral artery. The suture line was slightly fixed below the incision of the external carotid artery with silk thread. The silk thread clamping the proximal end of the common carotid artery was loosened. A gauze soaked in sterile saline was covered on the wound, and the rat was placed on a heat preservation pad to keep warm. 2.0 h after cerebral ischemia on the right side, the suture line was pulled out gently to restore the blood supply for reperfusion. The external carotid artery was ligated with silk thread fixing the suture line. The skin was stitched, and disinfected. The rats were placed in clean feed, and their general condition and respiration were observed until they woke up from anesthesia. The rats were provided with food and water, and commonly reared.
After the cerebral ischemia model was established, the animals were assigned to each group in a single-blind manner with equal probability. After reperfusion, the animals were immediately administered intravenously with the drugs once. The animals in the model group were administered with an equal volume of normal saline. Neurological deficit symptoms were evaluated 24 hours after cerebral ischemia, the animals were sacrificed, and their brains were taken out, stained, and photographed for determining the area of cerebral infarction.
Neurological deficit symptoms were evaluated using the modified Bederson 5-point scale. The neurological deficit symptoms of rats after cerebral ischemia were evaluated by a single-blind method. […] After scoring, the scoring results of various markers were submitted to the designer, who unblinded and obtained the scoring of each animal in each experimental group.
The degree of cerebral infarction was determined by TTC staining. After the evaluation of the symptoms of neurological deficits was completed, the animals were sacrificed with CO2. The brain was taken out by cutting off head. The olfactory bulb, cerebellum and lower brainstem were removed. The blood on the surface of the brain was washed with normal saline, and the residual water on the surface was removed. The brain was placed at −20° C. for 20 min, then taken out, immediately cut to a coronal section vertically downward at the crossing plane of the line of sight, and sliced backward every 2 mm. The brain slices were incubated in 1% TTC staining solution (at 37° C. for 30 min). The normal brain tissue was stained into dark red, and the ischemic brain tissue was stained into pale white.

primary cortical neurons = assay: NMDA-induced excitatory injury test on primary cortical neurons (Luminescent Cell Viability Assay); assay type: cell-based, rat
Procedure: Pregnant SD rats at 18 days of pregnancy were sacrificed by cervical dislocation. The uterus of rats was dissected and the brain of E18 fetal rats was taken out. The cerebral cortex tissue of the fetal rats was separated into ice-cold DMEM. The meninges and blood vessels on the cortical tissue were removed under a dissecting microscope. The cortical tissue was transferred into ice-cold DMEM, cut into pieces (about 1 mm^3), and digested with trypsin at 37° C. for 10 min. The digestion was stopped with FBS. The obtained cells were blown gently with a Pasteur pipette and passed through a 200-mesh sieve. The filtered cell suspension was transferred to a 15 mL centrifuge tube, and centrifuged at 1000 rpm for 5 min. The supernatant was discarded. Then the cell mass at the bottom of the centrifuge tube was blown gently with 37° C.-prewarmed complete medium (Neurobasal+B27+GlutaMax+1% P/S). The cells were counted using a hemocytometer, diluted to 5×10^5 cells/mL with complete medium, and seeded in a 96-well plate coated with PDL (100 μL/well). Half of the cell culture medium was replaced with complete medium the next day. […] After the inducing buffer was discarded, the cells were washed once with a Locke's buffer containing 1 mM MgCl2, and recovered to be incubated for 4 h by replacing with a complete medium (100 μL/well). The viability of the primary neuron cells was determined by Luminescent Cell Viability Assay kit. According to the instruction, reagents were added at 100 μL/well, and shaking was performed for 10 min. […] Calculation formula: relative neuron activity V (%)=(LUM-LUMbackground)/(LUMnormal control group-LUMbackground group)×100%. LUMbackground was the background reading of the Luminescent Cell Viability Assay reagent added to the cell-free complete medium well. […] Fitting of EC50 of compounds: Log[compound concentration] was used as the abscissa and the relative inhibition rate was used as the ordinate. Log(inhibitor) vs. response-variable slope (four parameters) curve was fitted by Prism8 (GraphPad) to obtain the IC50 of the compounds. […] After the inducing buffer was discarded, the cells were washed once with a Locke's buffer containing 1 mM MgCl2, and recovered to be incubated for 4 h by replacing with a complete medium (100 μL/well). […] After the inducing buffer was discarded, the cells were washed once with a Locke's buffer containing 1 mM MgCl2, and recovered to be incubated for 4 h by replacing with a complete medium (100 μL/well). […] After the inducing buffer was discarded, the cells were washed once with a Locke's buffer containing 1 mM MgCl2, and recovered to be incubated for 4 h by replacing with a complete medium (100 μL/well). […] After the inducing buffer was discarded, the cells were washed once with a Locke's buffer containing 1 mM MgCl2, and recovered to be incubated for 4 h by replacing with a complete medium (100 μL/well).

[2] = molecular target: N-methyl-D-aspartate (NMDA) receptors; conditions: read-out: IC50, noncompetitive block of NMDA receptors; cited from earlier work
kainic acid receptors = conditions: read-out: IC50, block of kainic acid receptors; cited from earlier work

T1 sequence (P14867 28-456): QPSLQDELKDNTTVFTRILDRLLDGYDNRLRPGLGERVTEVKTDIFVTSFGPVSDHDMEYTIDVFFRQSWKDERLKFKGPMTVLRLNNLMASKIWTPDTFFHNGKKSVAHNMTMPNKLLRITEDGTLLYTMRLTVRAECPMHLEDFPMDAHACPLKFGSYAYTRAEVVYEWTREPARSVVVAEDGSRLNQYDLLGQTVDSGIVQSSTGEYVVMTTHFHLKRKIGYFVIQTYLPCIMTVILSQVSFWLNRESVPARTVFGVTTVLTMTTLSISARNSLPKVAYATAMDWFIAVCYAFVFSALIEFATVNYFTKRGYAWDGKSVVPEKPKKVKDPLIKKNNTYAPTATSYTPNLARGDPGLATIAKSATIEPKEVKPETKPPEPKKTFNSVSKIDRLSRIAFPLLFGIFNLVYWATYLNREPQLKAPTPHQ
T1 sequence (P47870 25-512 limits assumed): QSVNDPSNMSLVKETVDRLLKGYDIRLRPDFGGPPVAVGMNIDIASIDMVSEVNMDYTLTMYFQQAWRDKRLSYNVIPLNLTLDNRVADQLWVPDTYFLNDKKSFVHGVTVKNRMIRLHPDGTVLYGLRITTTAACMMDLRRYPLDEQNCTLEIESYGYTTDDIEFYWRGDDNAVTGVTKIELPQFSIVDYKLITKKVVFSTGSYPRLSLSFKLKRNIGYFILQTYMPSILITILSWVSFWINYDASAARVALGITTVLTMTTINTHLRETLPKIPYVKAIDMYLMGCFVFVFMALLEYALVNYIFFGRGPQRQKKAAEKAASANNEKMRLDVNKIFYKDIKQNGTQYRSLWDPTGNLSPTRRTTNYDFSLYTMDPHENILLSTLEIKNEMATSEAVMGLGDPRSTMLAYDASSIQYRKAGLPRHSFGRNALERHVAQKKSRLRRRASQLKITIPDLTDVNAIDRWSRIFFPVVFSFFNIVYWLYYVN
T1 sequence (P18507 40-475): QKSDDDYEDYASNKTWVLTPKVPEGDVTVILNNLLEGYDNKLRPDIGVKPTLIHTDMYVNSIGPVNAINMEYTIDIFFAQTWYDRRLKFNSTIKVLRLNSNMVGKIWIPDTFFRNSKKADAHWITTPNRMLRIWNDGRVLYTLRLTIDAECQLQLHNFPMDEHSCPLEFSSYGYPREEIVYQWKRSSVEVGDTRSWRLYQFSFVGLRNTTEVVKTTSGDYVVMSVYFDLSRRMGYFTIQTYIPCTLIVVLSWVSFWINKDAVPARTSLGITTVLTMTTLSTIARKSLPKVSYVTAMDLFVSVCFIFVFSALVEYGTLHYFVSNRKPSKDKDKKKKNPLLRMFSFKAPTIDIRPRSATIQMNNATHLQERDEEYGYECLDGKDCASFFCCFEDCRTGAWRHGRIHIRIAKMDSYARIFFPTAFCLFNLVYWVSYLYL

CC1(C)[C@@H]2CC[C@@]1(C)[C@@H](O)C2 [(+)-2-Borneol]
EC50 ([1]; low concentration of GABA, read-out: EC50, enhancement of GABAAR function): 248 µM
enhancement of function of GABAAR induced by low concentration of GABA [1]: more than 10 times
neurological deficit score vs MCAO model group (MCAO rats; 1 mg/kg i.v. once after reperfusion, 24 hours): significantly reduced
cerebral infarction area vs MCAO model group (MCAO rats; 0.5 and 1 mg/kg i.v. once after reperfusion, 24 hours): dose-dependently, significantly reduced
Fa, reducing the area of cerebral infarction in MCAO rats (MCAO rats; (+)-2-borneol 0.5 mg/kg): 0.157
Fa, reducing the area of cerebral infarction in MCAO rats (MCAO rats; (+)-2-borneol 1 mg/kg): 0.256
neurological deficit score of MCAO rats, dose dependence (MCAO rats; i.v. once after reperfusion, evaluated 24 hours after cerebral ischemia): dose-dependently reduce
viability of neurons with excitatory injury (primary cortical neurons; Example 1, 0.41-3.7 μM): concentration-dependently increased
viability of neurons with excitatory injury (primary cortical neurons; Example 1, 10-100 μM): tended to decrease
viability of neurons with NMDA-induced excitatory injury (primary cortical neurons; Example 2, alone at 3.7 μM): significantly improve
Fa, protecting neurons from excitatory injury (primary cortical neurons; Example 3, (+)-2-borneol 0.5 μM): 0.014
Fa, protecting neurons from excitatory injury (primary cortical neurons; Example 3, (+)-2-borneol 1 μM): 0.022
Fa, protecting neurons from excitatory injury (primary cortical neurons; Example 3, (+)-2-borneol 2 μM): 0.152
Fa, protecting neurons from excitatory injury (primary cortical neurons; Example 3, (+)-2-borneol 4 μM): 0.22
Fa, protecting neurons from excitatory injury (primary cortical neurons; Example 3, (+)-2-borneol 8 μM): 0.231
viability of neurons with injury induced by NMDA (primary cortical neurons; Example 3, riluzole 10-160 μM, (+)-2-borneol 0.5-8 μM, compositions 20:1): concentration-dependently increase
Fa, protecting neurons from excitatory injury (primary cortical neurons; Example 4, (+)-2-borneol 0.5 μM): 0.042
Fa, protecting neurons from excitatory injury (primary cortical neurons; Example 4, (+)-2-borneol 1 μM): 0.069
Fa, protecting neurons from excitatory injury (primary cortical neurons; Example 4, (+)-2-borneol 2 μM): 0.086
Fa, protecting neurons from excitatory injury (primary cortical neurons; Example 4, (+)-2-borneol 4 μM): 0.209
Fa, protecting neurons from excitatory injury (primary cortical neurons; Example 4, (+)-2-borneol 8 μM): 0.205
viability of neurons with injury induced by NMDA (primary cortical neurons; Example 4, riluzole 2.5-40 μM, (+)-2-borneol 0.5-8 μM, compositions 5:1): concentration-dependently increase
Fa, protecting neurons from excitatory injury (primary cortical neurons; Example 5, (+)-2-borneol 0.5 μM): 0.042
Fa, protecting neurons from excitatory injury (primary cortical neurons; Example 5, (+)-2-borneol 1 μM): 0.077
Fa, protecting neurons from excitatory injury (primary cortical neurons; Example 5, (+)-2-borneol 2 μM): 0.128
Fa, protecting neurons from excitatory injury (primary cortical neurons; Example 5, (+)-2-borneol 4 μM): 0.205
Fa, protecting neurons from excitatory injury (primary cortical neurons; Example 5, (+)-2-borneol 8 μM): 0.202
viability of neurons with injury induced by NMDA / protective effect (primary cortical neurons; Example 5, riluzole 0.5-8 μM, (+)-2-borneol 0.5-8 μM, compositions 1:1): concentration-dependently increase
Emax (primary cortical neurons; Rattus norvegicus, Primary cortical neuron, Example 1, concentration-inhibition rate curve, read-out: Emax (relative inhibition rate)): 15%

Nc1nc2ccc(OC(F)(F)F)cc2s1 [Riluzole, 2-Amino-6-trifluoromethoxybenzothiazole]
neurological deficit score vs MCAO model group (MCAO rats; 8 mg/kg i.v. once after reperfusion, 24 hours): significantly reduced
IC50 [2]: 18 µM
IC50 (kainic acid receptors): 167 µM
